In the supplement of paper PMC11061612:

Columns and labels:
Assay in all cases: combination Emax (second highest fraction inhibited in the dose matrix, 72 h); higher = more inhibition; extreme values may be limits of the assay
[1] = system: CCRF-CEM (T-Lymphoblastic Leukemia)
Procedure, shortened: (§1)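 Cell lines in DMEM/F12 or RPMI with 10% FBS were plated in 1536-well plates, held 24 hours at 37°C, 5% CO2, then given two-drug dose matrices for 72 hours (DMSO typically 0.2%). Viability was read by CellTiter-Glo 2.0 luminescence and scaled as inhibition from 0 (vehicle wells) to 1 (blank wells). Combination Emax is the second-highest inhibition in the matrix; Bliss excess is observed combination effect minus expected EA + EB − EA·EB, EA and EB being single-agent effects.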

[2] = system: CaR-1 (Colorectal Carcinoma)
Procedure, shortened: as §1

[3] = system: Calu-3 (Lung Adenocarcinoma)
Procedure, shortened: as §1

[4] = system: DEL (T-Cell Non-Hodgkin's Lymphoma)
Procedure, shortened: as §1

[5] = system: Daoy (Other Solid Carcinomas)
Procedure, shortened: as §1

ES4 (Ewing's Sarcoma) = system: ES4 (Ewing's Sarcoma)
Procedure, shortened: as §1

HOS (Osteosarcoma) = system: HOS (Osteosarcoma)
Procedure, shortened: as §1

[6] = system: HuP-T4 (Pancreatic Carcinoma)
Procedure, shortened: as §1

KELLY (Neuroblastoma) = system: KELLY (Neuroblastoma)
Procedure, shortened: as §1

[7] = system: KYSE-520 (Esophageal Squamous Cell Carcinoma)
Procedure, shortened: as §1

[8] = system: LNCaP-Clone-FGC (Prostate Carcinoma)
Procedure, shortened: as §1

[9] = system: LU-135 (Small Cell Lung Carcinoma)
Procedure, shortened: as §1

[10] = system: ME-1 (Acute Myeloid Leukemia)
Procedure, shortened: as §1

[11] = system: MFE-296 (Endometrial Carcinoma)
Procedure, shortened: as §1

[12] = system: NCI-H2085 (Non-Small Cell Lung Carcinoma)
Procedure, shortened: as §1

[13] = system: OVCA420 (Ovarian Carcinoma)
Procedure, shortened: as §1

[14] = system: RC-K8 (B-Cell Non-Hodgkin's Lymphoma)
Procedure, shortened: as §1

[15] = system: TCCSUP (Bladder Carcinoma)
Procedure, shortened: as §1

[16] = system: TE-15 (Esophageal Squamous Cell Carcinoma)
Procedure, shortened: as §1

[17] = system: TE-9 (Esophageal Squamous Cell Carcinoma)
Procedure, shortened: as §1

SMILES	combination Emax [1]	combination Emax [2]	combination Emax [3]	combination Emax [4]	combination Emax [5]	combination Emax (ES4 (Ewing's Sarcoma))	combination Emax (HOS (Osteosarcoma))	combination Emax [6]	combination Emax (KELLY (Neuroblastoma))	combination Emax [7]	combination Emax [8]	combination Emax [9]	combination Emax [10]	combination Emax [11]	combination Emax [12]	combination Emax [13]	combination Emax [14]	combination Emax [15]	combination Emax [16]	combination Emax [17]
Cc1c2c(nn1C)CSCc1cc(n(C)n1)CSc1cc(c3ccccc3c1)OCCCc1c(C(=O)O)n(C)c3c-2c(Cl)ccc13 [AZD5991] + Cc1cc2ncnn2cc1Nc1ncc2c(n1)n(C1CCOCC1)c(=O)n2C [AZD7648] (first compound max 1 µM, 7x7, partner max 10 µM)	0.52	0.277	0.201	1	0.244	0.229	0.287	0.325	0.768	0.365	0.42	0.279	0.755	0.267	0.244	0.201	0.425	0.25	0.235	0.214
NC1(C(=O)N[C@@H](CCO)c2ccc(Cl)cc2)CCN(c2ncnc3[nH]ccc23)CC1 [Capivasertib] + C[C@@H]1COCCN1C2=NC(=NC(=C2)C3(CC3)[S@](=N)(=O)C)C4=C5C=CNC5=NC=C4 [AZD6738] (first compound max 10 µM, 7x7, partner max 10 µM)	0.983	0.601	0.512	1	0.901	0.851	0.844	0.446	0.962	0.678	0.989	0.793	0.277	0.641	0.504	0.516	0.775	0.685	0.879	0.232
Cc1c2c(nn1C)CSCc1cc(n(C)n1)CSc1cc(c3ccccc3c1)OCCCc1c(C(=O)O)n(C)c3c-2c(Cl)ccc13 [AZD5991] + CN(C)CCCOc1ccc(-c2ccc3ncc4c(c3c2)n(C2CCOCC2)c(=O)n4C)cn1 [AZD0156] (first compound max 1 µM, 7x7, partner max 1 µM)	0.48	0.186	0.15	1	0.223	0.238	0.278	0.779	0.741	0.23	0.429	0.286	0.803	0.287	0.219	0.191	0.314	0.162	0.188	0.188
COc1nnc2ccc(N3CCC(c4ccc(OCCN5CCN(C)C(=O)[C@H]5C)cc4)CC3)nn12 [AZD5153] + CCN(CCO)CCCOc1ccc2c(Nc3cc(CC(=O)Nc4cccc(F)c4)[nH]n3)ncnc2c1 [AZD2811] (first compound max 1 µM, 7x7, partner max 1 µM)	0.993	0.367	0.635	0.905	0.606	0.685	0.486	0.542	0.724	0.605	0.743	1	0.434	0.333	0.484	0.773	0.728	0.366	0.486	0.218
Cc1c2c(nn1C)CSCc1cc(n(C)n1)CSc1cc(c3ccccc3c1)OCCCc1c(C(=O)O)n(C)c3c-2c(Cl)ccc13 [AZD5991] + CC1(C)CCC(CN2CCN(c3ccc(C(=O)NS(=O)(=O)c4ccc(NCC5CCOCC5)c([N+](=O)[O-])c4)c(Oc4cnc5[nH]ccc5c4)c3)CC2)=C(c2ccc(Cl)cc2)C1 [Venetoclax] (first compound max 1 µM, 7x7, partner max 1 µM)	0.787	0.144	0.135	1	0.425	0.147	0.509	0.409	0.999	0.183	0.228	0.478	1	0.593	0.783	0.187	0.185	0.157	0.173	0.508
CS(=O)(=O)CCNCc1ccc(-c2ccc3ncnc(Nc4ccc(OCc5cccc(F)c5)c(Cl)c4)c3c2)o1 [Lapatinib] + C[C@@H](Oc1cc(-c2cnn(C3CCNCC3)c2)cnc1N)c1c(Cl)ccc(F)c1Cl [Crizotinib] (first compound max 10 µM, 7x7, partner max 10 µM)	0.881	0.858	0.931	1	0.934	0.928	0.408	0.915	0.97	0.945	0.804	0.94	0.194	0.224	0.673	0.964	0.622	0.508	0.906	0.552
CC(=O)c1c(C)c2cnc(Nc3ccc(N4CCNCC4)cn3)nc2n(C2CCCC2)c1=O [Palbociclib] + Cn1cnc2c(F)c(Nc3ccc(Br)cc3Cl)c(C(=O)NOCCO)cc21 [Selumetinib] (first compound max 10 µM, 7x7, partner max 10 µM)	0.624	0.307	0.149	0.92	0.18	0.224	0.362	0.349	0.626	0.457	0.451	0.352	0.428	0.105	0.231	0.51	0.459	0.187	0.657	0.201
Cc1c2c(nn1C)CSCc1cc(n(C)n1)CSc1cc(c3ccccc3c1)OCCCc1c(C(=O)O)n(C)c3c-2c(Cl)ccc13 [AZD5991] + C[C@@H]1COCCN1C2=NC(=NC(=C2)C3(CC3)[S@](=N)(=O)C)C4=C5C=CNC5=NC=C4 [AZD6738] (first compound max 1 µM, 7x7, partner max 10 µM)	1	0.362	0.275	1	0.945	0.885	0.789	0.51	0.991	0.583	0.688	0.736	0.798	0.791	0.52	0.494	0.781	0.648	0.736	0.366
CN(CCO)CC[C@H](CSc1ccccc1)Nc1ccc(S(=O)(=O)NC(=O)c2ccc(N3CCC([C@@H](O)c4ccccc4-c4ccc(Cl)cc4)CC3)cc2)cc1S(=O)(=O)C(F)(F)F [AZD4320] + C[C@@H]1COCCN1C2=NC(=NC(=C2)C3(CC3)[S@](=N)(=O)C)C4=C5C=CNC5=NC=C4 [AZD6738] (first compound max 1 µM, 7x7, partner max 10 µM)	1	0.514	0.284	1	0.972	1	0.722	0.621	0.982	0.672	0.782	1	1	0.559	0.502	0.516	0.956	0.865	0.908	0.372
Cc1c2c(nn1C)CSCc1cc(n(C)n1)CSc1cc(c3ccccc3c1)OCCCc1c(C(=O)O)n(C)c3c-2c(Cl)ccc13 [AZD5991] + CCN(CCO)CCCOc1ccc2c(Nc3cc(CC(=O)Nc4cccc(F)c4)[nH]n3)ncnc2c1 [AZD2811] (first compound max 1 µM, 7x7, partner max 1 µM)	0.999	0.338	0.17	1	0.505	0.219	0.238	0.624	0.896	0.283	0.33	0.906	0.733	0.45	0.863	0.235	0.379	0.321	0.826	0.251
NC1(C(=O)N[C@@H](CCO)c2ccc(Cl)cc2)CCN(c2ncnc3[nH]ccc23)CC1 [Capivasertib] + Cn1cnc2c(F)c(Nc3ccc(Br)cc3Cl)c(C(=O)NOCCO)cc21 [Selumetinib] (first compound max 10 µM, 7x7, partner max 10 µM)	0.485	0.564	0.461	0.578	0.472	0.398	0.491	0.396	0.44	0.583	0.969	0.352	0.342	0.618	0.427	0.651	0.367	0.373	0.633	0.398
CC(=O)Nc1cccc(-n2c(=O)n(C3CC3)c(=O)c3c(Nc4ccc(I)cc4F)n(C)c(=O)c(C)c32)c1 [Trametinib] + Cc1nc(-c2cn3c(n2)-c2ccc(-c4cnn(C(C)(C)C(N)=O)c4)cc2OCC3)n(C(C)C)n1 [Taselisib] (first compound max 1 µM, 7x7, partner max 10 µM)	0.517	0.776	0.972	0.618	0.622	0.715	0.43	0.832	0.47	0.846	0.813	0.514	0.381	0.43	0.52	0.917	0.512	0.65	0.664	0.824
